Reference: US7101878B1 (Agouron Pharmaceuticals, Inc., priority 1998, dated 2006)

Each compound was assayed against T1, mouse GnRH receptor (Mus musculus, UniProt Q01776) (assay: Radioligand binding, 125I-GnRH-A, 293 cells expressing mouse GnRH receptors). Settings: 10 uM; read-out: % Inhib. @ 10 uM mGnRH.
T1 construct: expressed in transfected cells; host or cells: 293 cells
T1 sequence (Q01776 1-327): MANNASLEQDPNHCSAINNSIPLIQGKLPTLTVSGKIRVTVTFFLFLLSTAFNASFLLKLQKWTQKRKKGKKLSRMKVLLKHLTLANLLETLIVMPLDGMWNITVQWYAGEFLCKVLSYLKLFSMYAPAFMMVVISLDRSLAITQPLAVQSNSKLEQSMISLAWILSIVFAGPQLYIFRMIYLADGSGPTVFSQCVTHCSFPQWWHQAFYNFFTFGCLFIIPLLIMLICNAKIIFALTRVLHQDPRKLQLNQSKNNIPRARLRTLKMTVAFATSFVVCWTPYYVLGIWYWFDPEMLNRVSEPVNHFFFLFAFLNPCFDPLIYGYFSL
Summary of the method: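 Bound label captured on 0.1% polyethyleneimine-treated GF/C filters, washed three times with PBS, counted. IC50 derived; identical set-up for every species.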

Row | inhibition at 10 µM [%] | Compound
1 | 27 | Cc1cc2c(cc1Cc1ccc(C(=O)N(Cc3c[nH]c4ccccc34)C3CCCCC3)o1)C(C)(C)CCC2(C)C
2 | 104 | CCN1CC(N(CCC(C)CCCC(C)(C)O)C(=O)c2ccc(Cc3cc4c(cc3C)C(C)(C)CCC4(C)C)o2)CN1CC (centres unmarked) [drawing 1567]
3 | 46 | Cc1cc2c(cc1Cc1ccc(C(=O)N3CCc4[nH]c5c(F)cccc5c4C3)o1)C(C)(C)CCC2(C)C
4 | 48 | Cc1cc2c(cc1Cc1ccc(C(=O)N(Cc3ccc(C(C)C)cc3)C3CCN(Cc4ccccc4)C3)o1)C(C)(C)CCC2(C)C (centres unmarked) [drawing 1564]
5 | 43 | Cc1cc2c(cc1Cc1ccc(C(=O)N(Cc3ccccc3Cl)C3CCN(Cc4ccccc4)CC3)o1)C(C)(C)CCC2(C)C
6 | 72 | Cc1cc2c(cc1Cc1ccc(C(=O)N[C@H](C)c3ccccc3)o1)C(C)(C)CCC2(C)C
7 | 39 | COC(=O)C1SCCN1C(=O)c1ccc(Cc2cc3c(cc2C)C(C)(C)CCC3(C)C)o1 (centres unmarked)
8 | 100 | CCCCN(C)C(=O)c1ccc(Cc2cc3c(cc2C)C(C)(C)CCC3(C)C)o1 [drawing 1548]
9 | 83 | Cc1cc2c(cc1Cc1ccc(C(=O)N(C)CCC#N)o1)C(C)(C)CCC2(C)C [drawing 1531]
10 | 88 | CCc1ccc(CN(CCCO)C(=O)c2ccc(Cc3cc4c(cc3C)C(C)(C)CCC4(C)C)o2)cc1
11 | 49 | Cc1cc2c(cc1Cc1ccc(C(=O)N3CCC(O)(c4ccc(Br)cc4)CC3)o1)C(C)(C)CCC2(C)C [drawing 1512]
12 | 97 | Cc1cc2c(cc1Cc1ccc(C(=O)N3CCCC(C)C3)o1)C(C)(C)CCC2(C)C (centres unmarked)
13 | 65 | Cc1cc2c(cc1Cc1ccc(C(=O)NCC3(O)CCCCC3)o1)C(C)(C)CCC2(C)C [drawing 1445]
14 | 46 | COc1cc2c(cc1OC)CN(C(=O)c1ccc(Cc3cc4c(cc3C)C(C)(C)CCC4(C)C)o1)CC2 [drawing 1253]
15 | 96 | Cc1cc2c(cc1Cc1ccc(C(=O)N(C)CCC3OCCO3)o1)C(C)(C)CCC2(C)C [drawing 1583]
16 | 44 | Cc1cc2c(cc1Cc1ccc(C(=O)N[C@H](C)c3ccc([N+](=O)[O-])cc3)o1)C(C)(C)CCC2(C)C
17 | 103 | CCCOCCNC(=O)c1ccc(Cc2cc3c(cc2C)C(C)(C)CCC3(C)C)o1 [drawing 1590]
18 | 94 | Cc1cc2c(cc1Cc1ccc(C(=O)N(Cc3cccnc3)CC3CC=CCC3)o1)C(C)(C)CCC2(C)C (centres unmarked) [drawing 1318]
19 | 101 | C#CCN(CCC)CCN1CCN(C(=O)c2ccc(Cc3cc4c(cc3C)C(C)(C)CCC4(C)C)o2)CC1
20 | 23 | CNC(=O)c1ccc(Cc2cc3c(cc2C)C(C)(C)CCC3(C)C)o1 [drawing 1539]
21 | 21 | CCN(CC)C(=O)C1CCCN(C(=O)c2ccc(Cc3cc4c(cc3C)C(C)(C)CCC4(C)C)o2)C1 (centres unmarked)

Row | inhibition at 10 µM [%] | Compound
22 | 92 | Cc1cc2c(cc1Cc1ccc(C(=O)N(C)CCCN(C)C)o1)C(C)(C)CCC2(C)C [drawing 1516]
23 | 68 | CCN(CC)CCN(C)C(=O)c1ccc(Cc2cc3c(cc2C)C(C)(C)CCC3(C)C)o1 [drawing 1428]
24 | 78 | COc1ccc(CCNC(=O)c2ccc(Cc3cc4c(cc3C)C(C)(C)CCC4(C)C)o2)cc1Br [drawing 1532]
25 | 99 | CCCC(CO)NC(=O)c1ccc(Cc2cc3c(cc2C)C(C)(C)CCC3(C)C)o1 (centres unmarked) [drawing 1547]
26 | 73 | COc1ccc(N2CCN(C(=O)c3ccc(Cc4cc5c(cc4C)C(C)(C)CCC5(C)C)o3)CC2C)cc1 (centres unmarked)
27 | 14 | Cc1cc2c(cc1Cc1ccc(C(=O)N(C)CCCC34c5ccccc5[C@@H]5CCC53c3ccccc34)o1)C(C)(C)CCC2(C)C (some centres unmarked)
28 | 50 | Cc1cc2c(cc1Cc1ccc(C(=O)N(CCC(c3ccccc3)c3ccccc3)Cc3ccccn3)o1)C(C)(C)CCC2(C)C [drawing 1554]
29 | 102 | Cc1cc2c(cc1Cc1ccc(C(=O)N3CCN(C4CCCCC4)CC3)o1)C(C)(C)CCC2(C)C [drawing 1265]
30 | 73 | CC(=O)N1CCCN(C(=O)c2ccc(Cc3cc4c(cc3C)C(C)(C)CCC4(C)C)o2)CC1 [drawing 1503]
31 | 28 | Cc1cc2c(cc1Cc1ccc(C(=O)N3CCCCC3C[C@H]3CCCN3C)o1)C(C)(C)CCC2(C)C (some centres unmarked)
32 | 56 | Cc1cc2c(cc1Cc1ccc(C(=O)NCCNc3cccc4ccccc34)o1)C(C)(C)CCC2(C)C [drawing 1449]
33 | 26 | COC(=O)C1CN(C(=O)c2ccc(Cc3cc4c(cc3C)C(C)(C)CCC4(C)C)o2)CC(C)C1=O (centres unmarked)
34 | 103 | Cc1ccc(CN(CCCN2CCOCC2)C(=O)c2ccc(Cc3cc4c(cc3C)C(C)(C)CCC4(C)C)o2)cc1
35 | 103 | CCCCN(CCCC)CCCNC(=O)c1ccc(Cc2cc3c(cc2C)C(C)(C)CCC3(C)C)o1 [drawing 1242]
36 | 84 | Cc1cc2c(cc1Cc1ccc(C(=O)N3CC(C)OC(C)C3)o1)C(C)(C)CCC2(C)C (centres unmarked) [drawing 1426]
37 | 28 | Cc1cc2c(cc1Cc1ccc(C(=O)N(Cc3ccc(O)cc3)C3CCN(Cc4ccccc4)CC3)o1)C(C)(C)CCC2(C)C
38 | 90 | CCCCNC(=O)c1ccc(Cc2cc3c(cc2C)C(C)(C)CCC3(C)C)o1
39 | 67 | Cc1cc2c(cc1Cc1ccc(C(=O)N3CCC(NC(=O)OC(C)(C)C)CC3)o1)C(C)(C)CCC2(C)C
40 | 100 | Cc1cc2c(cc1Cc1ccc(C(=O)N(Cc3cccnc3)Cc3cccn3C)o1)C(C)(C)CCC2(C)C [drawing 1285]
41 | 44 | Cc1cc2c(cc1Cc1ccc(C(=O)N3CCN(c4ccc(OCc5ccccc5)cc4)CC3)o1)C(C)(C)CCC2(C)C
42 | 97 | Cc1cc2c(cc1Cc1ccc(C(=O)NC3CCCCC3O)o1)C(C)(C)CCC2(C)C (centres unmarked) [drawing 1522]

Same assay, conditions: 1 h, substrate remaining; 10 uM compound; closer to zero = closer to 100% inhibition; read-out: S%R 10 uM mGnRHR

Row | remaining activity at 10 µM [%] | Compound
43 | 11 | CCC(CO)NC(=O)c1ccc(Cc2cc3c(cc2C)C(C)(C)CCC3(C)C)o1 (centres unmarked) [Compound 597]
44 | 38 | CCOC(=O)CN(Cc1ccccc1)C(=O)c1ccc(Cc2cc3c(cc2C)C(C)(C)CCC3(C)C)o1 [Compound 536]
45 | 23 | COc1ccc(CCNC(=O)c2ccc(Cc3cc4c(cc3C)C(C)(C)CCC4(C)C)o2)cc1Br [Compound 643]
46 | -1 | Cc1cc2c(cc1Cc1ccc(C(=O)NCc3ccc4c(c3)OCO4)o1)C(C)(C)CCC2(C)C [Compound 484]
47 | 34 | Cc1cc2c(cc1Cc1ccc(C(=O)NCCc3ccc([N+](=O)[O-])cc3)o1)C(C)(C)CCC2(C)C [Compound 482]
48 | 10 | Cc1cc2c(cc1Cc1ccc(C(=O)NC3CCS(=O)(=O)C3)o1)C(C)(C)CCC2(C)C (centres unmarked) [Compound 626]
49 | -1 | Cc1cc2c(cc1Cc1ccc(C(=O)NC3CCN(Cc4ccccc4)C3)o1)C(C)(C)CCC2(C)C (centres unmarked) [Compound 699]
50 | 1 | Cc1cc2c(cc1Cc1ccc(C(=O)NCC3CN(Cc4ccccc4)CCO3)o1)C(C)(C)CCC2(C)C (centres unmarked) [Compound 499]
51 | 23 | Cc1cc2c(cc1Cc1ccc(C(=O)N(CCC#N)CCC#N)o1)C(C)(C)CCC2(C)C [Compound 672]
52 | 9 | Cc1cc2c(cc1Cc1ccc(C(=O)NCCc3cccc(C(F)(F)F)c3)o1)C(C)(C)CCC2(C)C [Compound 526]
53 | 7 | Cc1cc2c(cc1Cc1ccc(C(=O)NCCCOC(C)C)o1)C(C)(C)CCC2(C)C [Compound 560]
54 | 10 | Cc1cc2c(cc1Cc1ccc(C(=O)NCC(C)O)o1)C(C)(C)CCC2(C)C (centres unmarked) [Compound 556]
55 | -4 | Cc1cc2c(cc1Cc1ccc(C(=O)N(CCC3CCCN3C)Cc3ccc4ccccc4c3)o1)C(C)(C)CCC2(C)C (centres unmarked) [Compound 598]
56 | 17 | Cc1cc2c(cc1Cc1ccc(C(=O)N(Cc3ccccc3)C(C)C)o1)C(C)(C)CCC2(C)C [Compound 629]
57 | 23 | Cc1cc2c(cc1Cc1ccc(C(=O)N(CCC#N)Cc3ccco3)o1)C(C)(C)CCC2(C)C [Compound 705]
58 | 9 | Cc1cc2c(cc1Cc1ccc(C(=O)N(CCN3CCOCC3)Cc3ccccc3)o1)C(C)(C)CCC2(C)C [Compound 534]
59 | 0 | Cc1cc2c(cc1Cc1ccc(C(=O)NCCSCCO)o1)C(C)(C)CCC2(C)C [Compound 561]
60 | 15 | Cc1cc2c(cc1Cc1ccc(C(=O)N(C)CC3OCCO3)o1)C(C)(C)CCC2(C)C [Compound 576]
61 | 17 | Cc1cc2c(cc1Cc1ccc(C(=O)N(C)CCC#N)o1)C(C)(C)CCC2(C)C [Compound 636]
62 | 10 | Cc1cc2c(cc1Cc1ccc(C(=O)NCC3CCNCC3)o1)C(C)(C)CCC2(C)C [Compound 483]
63 | 19 | Cc1cc2c(cc1Cc1ccc(C(=O)N3CCC(NC(=O)OC(C)(C)C)C3)o1)C(C)(C)CCC2(C)C (centres unmarked) [Compound 652]
64 | -3 | Cc1cc2c(cc1Cc1ccc(C(=O)NCc3ccccn3)o1)C(C)(C)CCC2(C)C [Compound 501]
65 | 2 | CCCC(CO)NC(=O)c1ccc(Cc2cc3c(cc2C)C(C)(C)CCC3(C)C)o1 (centres unmarked) [Compound 673]
66 | 48 | Cc1cc2c(cc1Cc1ccc(C(=O)N3CCC[C@H]3CNc3ccccc3)o1)C(C)(C)CCC2(C)C [Compound 549]
67 | 32 | Cc1cc2c(cc1Cc1ccc(C(=O)N3CCN(CCO)CC3)o1)C(C)(C)CCC2(C)C [Compound 537]
68 | -4 | Cc1cc2c(cc1Cc1ccc(C(=O)N(CCN(C)C)Cc3ccccc3)o1)C(C)(C)CCC2(C)C [Compound 708]
